Results reported in patent EP3771713A1 (priority 2019, dated 2021).
Entries after “also recorded” stand apart in the source; their conditions may differ.

What was measured:
[1] = target: hBChE (Homo sapiens, UniProt P06276); assay: biochemical; format: biochemical
[2] = target: eeAChE (Electrophorus electricus, UniProt O42275); assay: biochemical; details: eeAChE from electric eel; read-out: IC50 AChE (eeAChE)
[3] = target: hAChE (Homo sapiens, UniProt P22303); assay: biochemical; format: biochemical; details: hAChE recombinant expressed
[4] = target: T1, hCB1R (Homo sapiens, UniProt P21554); format: binding
T1 construct: expressed in transfected cells; host or cells: CHO cells stably expressing hCB1R

[5] = target: Aβ42 (Homo sapiens, UniProt P05067); assay: Aβ42 self-aggregation, thioflavin-T fluorescence assay; format: biochemical
[6] = target: hAChE-induced Aβ40 aggregation (Homo sapiens, UniProt P22303); assay: biochemical; format: biochemical
[7] = target: T2, hCB2R (Homo sapiens, UniProt P34972); format: cell-based
T2 construct: expressed in transfected cells; host or cells: HEK cells stably expressing hCB2R

[8] = tested on: murine microglial cell line N9; assay: Microglia activation: LPS-activated N9 cells, M1/M2 markers (Griess reaction, western blot); format: cell-based
[9] = tested on: HT-22 cells; format: cell-based, murine
[10] = tested on: Aβ25-35-induced learning impairments in mice; details: mouse, ip
[11] = N9 cells, 100 ng/mL LPS, 1-5 µM compound, 24 h, M1 marker
[12] = N9 cells, 100 ng/mL LPS, 1-5 µM compound, 24 h, M2 marker

T2 sequence (P34972 whole entry): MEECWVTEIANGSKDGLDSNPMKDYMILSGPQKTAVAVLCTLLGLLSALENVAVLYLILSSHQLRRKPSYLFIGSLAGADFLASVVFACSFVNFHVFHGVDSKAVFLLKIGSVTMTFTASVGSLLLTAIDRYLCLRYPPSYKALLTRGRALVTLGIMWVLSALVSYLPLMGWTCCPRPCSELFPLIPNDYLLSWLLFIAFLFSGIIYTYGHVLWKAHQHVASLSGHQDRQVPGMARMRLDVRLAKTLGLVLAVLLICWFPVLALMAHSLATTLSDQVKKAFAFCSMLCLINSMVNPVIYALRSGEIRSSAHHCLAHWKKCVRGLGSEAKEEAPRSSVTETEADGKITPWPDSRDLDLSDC
hAChE-induced Aβ40 aggregation, sequence (P22303 32-614): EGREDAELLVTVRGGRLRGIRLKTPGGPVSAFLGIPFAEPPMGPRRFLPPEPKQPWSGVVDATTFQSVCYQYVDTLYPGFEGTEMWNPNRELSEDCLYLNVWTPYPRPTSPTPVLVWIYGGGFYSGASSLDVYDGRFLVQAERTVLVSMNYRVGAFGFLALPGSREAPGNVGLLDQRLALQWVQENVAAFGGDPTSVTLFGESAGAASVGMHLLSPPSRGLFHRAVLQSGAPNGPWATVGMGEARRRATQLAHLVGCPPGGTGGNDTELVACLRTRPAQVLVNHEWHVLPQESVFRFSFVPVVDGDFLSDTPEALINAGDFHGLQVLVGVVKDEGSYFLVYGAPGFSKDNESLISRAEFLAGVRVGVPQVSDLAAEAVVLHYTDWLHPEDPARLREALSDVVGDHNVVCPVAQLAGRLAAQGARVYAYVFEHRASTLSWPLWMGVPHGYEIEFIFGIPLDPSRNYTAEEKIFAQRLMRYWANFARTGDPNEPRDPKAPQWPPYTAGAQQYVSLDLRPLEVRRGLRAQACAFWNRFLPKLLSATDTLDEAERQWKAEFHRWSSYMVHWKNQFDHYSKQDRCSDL
Aβ42, sequence (P05067 672-713): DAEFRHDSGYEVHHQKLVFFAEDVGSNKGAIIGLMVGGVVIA
hBChE, sequence (P06276 29-602): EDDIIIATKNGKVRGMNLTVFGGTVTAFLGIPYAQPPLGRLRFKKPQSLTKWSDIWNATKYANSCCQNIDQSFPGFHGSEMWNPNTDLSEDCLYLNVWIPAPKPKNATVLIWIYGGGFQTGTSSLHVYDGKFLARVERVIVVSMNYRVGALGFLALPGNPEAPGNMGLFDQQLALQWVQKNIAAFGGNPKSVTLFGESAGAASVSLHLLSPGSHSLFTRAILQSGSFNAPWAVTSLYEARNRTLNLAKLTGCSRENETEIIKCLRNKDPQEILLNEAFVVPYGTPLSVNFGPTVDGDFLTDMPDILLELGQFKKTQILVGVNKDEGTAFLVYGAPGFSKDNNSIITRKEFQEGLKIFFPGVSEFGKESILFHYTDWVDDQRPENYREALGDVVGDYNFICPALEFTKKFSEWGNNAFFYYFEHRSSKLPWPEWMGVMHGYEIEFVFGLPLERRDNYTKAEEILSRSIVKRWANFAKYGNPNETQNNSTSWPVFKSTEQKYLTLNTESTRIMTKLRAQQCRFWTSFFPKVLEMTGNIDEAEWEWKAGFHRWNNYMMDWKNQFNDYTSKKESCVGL
hAChE, sequence (P22303 32-614): as the sequence (P22303 32-614) above
T1 sequence (P21554 whole entry): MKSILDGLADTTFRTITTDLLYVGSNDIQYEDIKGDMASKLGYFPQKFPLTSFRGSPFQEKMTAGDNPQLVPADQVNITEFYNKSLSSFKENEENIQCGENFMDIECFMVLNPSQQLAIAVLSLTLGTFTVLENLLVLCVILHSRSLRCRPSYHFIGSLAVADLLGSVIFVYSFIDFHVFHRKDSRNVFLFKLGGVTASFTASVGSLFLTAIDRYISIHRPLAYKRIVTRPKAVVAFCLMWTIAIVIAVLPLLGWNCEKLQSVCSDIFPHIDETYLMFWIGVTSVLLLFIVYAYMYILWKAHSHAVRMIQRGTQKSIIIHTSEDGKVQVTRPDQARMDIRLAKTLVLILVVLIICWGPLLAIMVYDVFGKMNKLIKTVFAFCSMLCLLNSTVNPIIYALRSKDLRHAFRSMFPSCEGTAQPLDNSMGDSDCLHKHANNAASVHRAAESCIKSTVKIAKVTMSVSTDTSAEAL
eeAChE, sequence (O42275 24-633): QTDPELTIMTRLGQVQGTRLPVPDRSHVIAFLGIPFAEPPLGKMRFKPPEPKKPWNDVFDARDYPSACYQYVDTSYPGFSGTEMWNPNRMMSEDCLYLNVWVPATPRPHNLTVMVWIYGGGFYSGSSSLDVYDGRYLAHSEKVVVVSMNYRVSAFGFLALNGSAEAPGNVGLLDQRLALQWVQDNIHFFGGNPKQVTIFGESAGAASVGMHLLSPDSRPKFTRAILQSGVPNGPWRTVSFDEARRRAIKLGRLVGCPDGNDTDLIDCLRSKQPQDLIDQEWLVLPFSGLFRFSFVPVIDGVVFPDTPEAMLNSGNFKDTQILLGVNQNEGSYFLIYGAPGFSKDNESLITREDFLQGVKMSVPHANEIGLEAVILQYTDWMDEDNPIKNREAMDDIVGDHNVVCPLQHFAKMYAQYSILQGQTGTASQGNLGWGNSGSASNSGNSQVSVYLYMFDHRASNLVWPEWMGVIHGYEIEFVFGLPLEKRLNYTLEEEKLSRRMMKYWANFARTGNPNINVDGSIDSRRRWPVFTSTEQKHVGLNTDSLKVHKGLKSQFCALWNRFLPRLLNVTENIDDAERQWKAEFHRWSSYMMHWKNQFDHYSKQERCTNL

## CCOc1ccc(Cc2nc3cc(C(=O)N(CC)CC)ccc3n2CCCCCCNc2c3c(nc4ccccc24)CCCC3)cc1 [compound 3e, 2-(4-Ethoxybenzyl)-N,N-diethyl-1-(6-((1,2,3,4-tetrahydroacridin-9-yl)amino)hexyl)-1H-benzo[d]imidazole-5-carboxamide]
[1]; compared to tacrine
  inhibitory potency towards hBChE compared to tacrine: increased inhibitory potency
[1]; hBChE from human serum, means of at least three determinations, read-out: IC50 hBChE
  IC50: 1.9 nM
[2]
  IC50: 0.5 nM
[3]
  pIC50 ± SD AChE (hAChE): 7.1 ± 0.1
[3]; read-out: IC50 AChE (hAChE)
  IC50: 86.1 nM
[4]
  [^3H]CP 55,940 displ. @10 µM hCB1R: 17%
[5]; 50 µM inhibitor and 50 µM Aβ42, mean ± SEM, read-out: % inhibition Aβ aggregation self-induced
  inhibition at 50 µM: 81.5 ± 2%
[5]; 1/1 ratio with Aβ42
  inhibition of Aβ42 self-aggregation (in words): pronounced inhibition; also recorded: strongly inhibited
[6]
  inhibition of AChE-induced Aβ40 aggregation (in words): pronounced inhibition; also recorded: significantly reduce
[6]; [I] = 100 µM, Aβ40/hAChE ratio 100/1, mean ± SEM, read-out: % inhibition Aβ aggregation AChE-induced
  inhibition at 100 µM: 62.9 ± 5.4%
[7]
  MIF gene expression: reduced
  STAT-3 gene expression: reduced
  behavior at the hCB2R: maintained their agonist behavior
[8]; LPS-activated microglial cells
  immunomodulatory effect: immunomodulatory effect
[8]; N9 cells, 100 ng/mL LPS, 1-5 µM compound, 24 h
  NO release / nitrite accumulation: reduced; also recorded: strongly reduces
[8]; [11]
  IL1β release: significantly decrease; also recorded: strongly reduces
  iNOS expression: significantly decrease; also recorded: strongly reduces
[8]; [12]
  TGFβ2 expression: not reduced; also recorded: no parallel change
  TREM2 expression: not reduced; also recorded: no parallel change
[9]
  neuroprotective behavior (in words): low neuroprotective behavior; also recorded: showed neuroprotection
[10]; in vivo
  dose that significantly prevented Aβ25-35-induced learning impairments: 0.3 mg/kg
  most effective dose (completely prevented Aβ25-35 impairments in both tests): 0.3 mg/kg
[10]
  dose given for the high in vivo efficacy (conclusion): 0.1 mg/kg
